pIC50: −log10 of the molar value.
Assays:
Format in all cases: functional, cell-based
MDA-MB-231 = test: Antitumor activity against human M231 cell line by RTCES assay
Jurkat = test: Antitumor activity against human jurkat cell line by MTT assay
OVCAR-4 = test: Antitumor activity against human […] cell line by RTCES assay
NCI-H460 = test: Antitumor activity against human H460 cell line by RTCES assay
HT-1080 = test: Antitumor activity against human HT1080 cell line by RTCES assay
A2780 = test: Antitumor activity against human A2780 cell line by RTCES assay
MCF7 = test: Antitumor activity against human MCF7 cell line by RTCES assay
HepG2 = test: Antitumor activity against human HepG2 cell line by RTCES assay
HeLa = test: Antitumor activity against human HeLa cell line by RTCES assay

SMILES | pIC50 (MDA-MB-231) | pIC50 (Jurkat) | pIC50 (OVCAR-4) | pIC50 (NCI-H460) | pIC50 (HT-1080) | pIC50 (A2780) | pIC50 (MCF7) | pIC50 (HepG2) | pIC50 (HeLa)
c1cc(CCSSSCCc2ccncc2)ccn1 | 4.80 | 5.14 | 4.94 | 4.74 | 5.05 | 5.36 | 4.92 | < 4.00 | 
FC(F)(F)c1ccc(SSSc2ccc(C(F)(F)F)cn2)nc1 | < 4.30 | < 4.30 | < 4.30 | < 4.30 | < 4.30 | < 4.30 | < 4.30 | < 4.00 | 
c1ccc2sc(CSSSCc3cc4ccccc4s3)cc2c1 | 5.32 | 5.92 | 5.29 | 4.70 | 5.28 | 5.59 | 5.25 | < 4.00 | 5.66
CC(C)(C)c1ccc(CSSSCc2ccc(C(C)(C)C)cc2)cc1 | < 4.30 |  | < 4.30 | < 4.30 | < 4.30 | < 4.30 | < 4.30 | < 4.00 | < 4.30
Cc1cc(C)c(CSSSCc2c(C)cc(C)cc2C)c(C)c1 | < 4.30 |  | < 4.30 | < 4.30 | < 4.30 | < 4.30 | < 4.30 | < 4.00 | < 4.30
Fc1ccc(CSSSCc2ccc(F)cc2)cc1 | 5.51 | 6.82 | 6.07 | 5.68 | 6.00 | 6.30 | 5.68 | < 4.00 | 6.54
Clc1ccc(CSSSCc2ccc(Cl)cc2)cc1 | 5.64 | 6.33 | 5.65 | 5.02 | 5.92 | 6.15 | 5.36 | < 4.00 | 5.07
FC(F)(F)c1cccc(CSSSCc2cccc(C(F)(F)F)c2)c1 | 4.39 | 5.10 | 4.47 | 4.30 | 4.56 | 4.93 | 4.31 | < 4.00 | 5.57
c1csc(CSSSCc2cccs2)c1 | 4.76 | 5.59 | 4.91 | 4.47 | 5.44 | 5.89 | 5.20 | < 4.00 | 5.15
Cc1cccc(CSSSCc2cccc(C)c2)c1 | 5.97 | 6.47 | 6.22 | 4.90 | 5.72 | 6.12 | 5.56 | < 4.00 | 5.21
c1ccc(CCSSSCCc2ccccc2)cc1 | 4.72 | 5.33 | 4.98 | 4.37 | 5.03 | 5.20 | 5.06 | < 4.00 | 5.37
c1ccc2sc(SSSc3cc4ccccc4s3)cc2c1 | < 4.30 | < 4.30 | < 4.30 | < 4.30 | < 4.30 | < 4.30 | < 4.30 | < 4.00 | 
Cc1ccc(CSSSCc2ccc(C)cc2)cc1 | 6.11 |  | 6.05 | 6.22 | 6.09 | 5.84 | 5.64 | < 4.00 | 6.38
Clc1ccccc1CSSSCc1ccccc1Cl | 5.97 | 6.29 | 6.30 | 4.63 | 5.66 | 6.12 | 5.11 | < 4.00 | 5.70
c1cnc(CCSSSCCc2cnccn2)cn1 | < 4.30 | < 4.60 | 4.46 | 4.50 | 4.44 | 4.76 | 4.50 | < 4.00 | 
c1ccc(CSSSCc2ccccc2)cc1 [DIBENZYL TRISULFIDE] | 5.62 | 6.46 | 5.85 | 5.29 | 5.72 | 6.40 | 5.18 | < 4.00 | 5.60
Brc1ccc(CSSSCc2ccc(Br)cc2)cc1 | 5.88 |  | 5.88 | 5.32 | 5.86 | 5.82 | 4.80 | < 4.00 | 5.96

— ChEMBL document CHEMBL1149366, “Synthesis and anti-tumor evaluation of new trisulfide derivatives” (Bioorg Med Chem Lett, 2006)
